Test results as given in patent US20100298141A1, “SUBSTITUTED PYRIDINE N-OXIDE HERBICIDES” (E. I. DU PONT DE NEMOURS AND COMPANY, priority 2007, published 2010).

Assays:
[1] = system: barnyardgrass; test: Test A pre-/postemergence greenhouse test; type: in vivo, Echinochloa crus-galli; details: for Barnyardgrass plant response rating: 0 to 100 scale
Outline: (§1)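 Untreated controls served as the reference for visual injury ratings taken about ten days after spraying. The non-phytotoxic solvent/surfactant formulation was applied preemergence to seeded loam and sand and postemergence to plants two to ten cm high.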

[2] = system: crabgrass; test: Test A pre-/postemergence greenhouse test; type: in vivo, Digitaria sanguinalis; details: for Crabgrass, Large plant response rating: 0 to 100 scale
Outline: as §1

[3] = system: wheat; test: Test A pre-/postemergence greenhouse test; type: in vivo, Triticum aestivum; details: for Wheat plant response rating: 0 to 100 scale
Outline: as §1

[4] = system: corn; test: Test A pre-/postemergence greenhouse test; type: in vivo, Zea mays; details: for Corn plant response rating: 0 to 100 scale
Outline: as §1

[5] = system: Italian ryegrass; test: Test C pre-/postemergence test; type: in vivo, Lolium multiflorum; details: for Ryegrass, Italian plant response rating: preemergence, scale 0 (no effect) to 100 (complete control); for Plant response rating, Ryegrass, Italian: scale 0 to 100, 0 no effect, 100 complete control
Outline: (§2)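 Test chemicals were formulated with surfactant in a non-phytotoxic solvent and sprayed both on freshly planted seeds (preemergence) and on 1- to 4-leaf plants of 2–18 cm (postemergence). Flooded-paddy pots received compound directly into 3 cm of standing water, maintained for the test.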

[6] = system: Surinam grass; test: Test C pre-/postemergence test; type: in vivo, Brachiaria decumbens; details: for Surinam Grass plant response rating: preemergence, scale 0 (no effect) to 100 (complete control); for Plant response rating, Surinam Grass: scale 0 to 100, 0 no effect, 100 complete control
Outline: as §2

[7] = system: corn; test: Test C pre-/postemergence test; type: in vivo, Zea mays; details: for Plant response rating, Corn: scale 0 to 100, 0 no effect, 100 complete control
Outline: as §2

[8] = system: crabgrass; test: Test C pre-/postemergence test; type: in vivo, Digitaria sanguinalis; details: for Plant response rating, Crabgrass, Large: scale 0 to 100, 0 no effect, 100 complete control
Outline: as §2

[9] = system: giant foxtail; test: Test C pre-/postemergence test; type: in vivo, Setaria faberii; details: for Plant response rating, Foxtail, Giant: scale 0 to 100, 0 no effect, 100 complete control
Outline: as §2

[10] = system: Goosegrass; test: Test C pre-/postemergence test; type: in vivo, Eleusin indica; details: for Plant response rating, Goosegrass: scale 0 to 100, 0 no effect, 100 complete control
Outline: as §2

[11] = system: johnsongrass; test: Test C pre-/postemergence test; type: in vivo, Sorghum halepense; details: for Plant response rating, Johnsongrass: scale 0 to 100, 0 no effect, 100 complete control
Outline: as §2

[12] = system: morningglory; test: Test C pre-/postemergence test; type: in vivo, Ipomoea coccinea; details: for Plant response rating, Morningglory: Postemergence, scale 0 to 100, 0 no effect, 100 complete control
Outline: as §2

[13] = system: eastern black nightshade; test: Test C pre-/postemergence test; type: in vivo, Solanum ptycanthum
Source text: Seeds of plant species selected from blackgrass (Alopecurus myosuroides), downy brome (Bromus tectorum), green foxtail (Setaria viridis), Italian ryegrass (Lolium multiflorum), wheat (Triticum aestivum), wild oat (Avena fatua), catchweed bedstraw (Galium aparine), Russian thistle (Salsola kali), […] (Cynodon dactylon), Surinam grass (Brachiaria decumbens), cocklebur (Xanthium strumarium), corn (Zea mays), crabgrass (Digitaria sanguinalis), woolly cupgrass (Eriochloa villosa), giant foxtail (Setaria faberii), Goosegrass (Eleusin indica), johnsongrass (Sorghum halepense), kochia (Kochia scoparia), lambsquarters (Chenopodium album), morningglory (Ipomoea coccinea), eastern black nightshade (Solanum ptycanthum), yellow nutsedge (Cyperus esculentus), pigweed (Amaranthus retroflexus), common ragweed (Ambrosia elation), soybean (Glycine max), common (oilseed) sunflower (Helianthus annuus), and velvetleaf (Abutilon theophrasti) were planted and treated preemergence with test chemicals formulated in a non-phytotoxic solvent mixture which included a surfactant. At the same time, plants selected from these crop and weed species and also winter barley (Hordeum vulgare), canarygrass (Phalaris minor), and chickweed (Stellaria media) were treated with postemergence applications of some of the test chemicals formulated in the same manner. Plants ranged in height from 2 to 18 cm (1- to 4-leaf stage) for postemergence treatments. […] At time of treatment, test pots were flooded to 3 cm above the soil surface, treated by application of test compounds directly to the paddy water, and then maintained at that water depth for the duration of the test. […] A dash (-) response means no test result.

[14] = system: pigweed; test: Test C pre-/postemergence test; type: in vivo, Amaranthus retroflexus; details: for Plant response rating, Pigweed: scale 0 to 100, 0 no effect, 100 complete control
Outline: as §2

[15] = system: common (oilseed) sunflower; test: Test C pre-/postemergence test; type: in vivo, Helianthus annuus; details: for Sunflower plant response rating: preemergence, scale 0 (no effect) to 100 (complete control)
Outline: as §2

[16] = system: velvetleaf; test: Test C pre-/postemergence test; type: in vivo, Abutilon theophrasti; details: Postemergence; for Plant response rating, Velvetleaf: scale 0 to 100, 0 no effect, 100 complete control
Outline: as §2

[17] = Postemergence, 125 g ai/ha, 0 is no effect, 100 is complete control
[18] = Postemergence, 500 g ai/ha, 0 is no effect, 100 is complete control
[19] = Preemergence, 125 g ai/ha, 0 no effect, 100 complete control
[20] = Preemergence, 500 g ai/ha, 0 to 100 scale where 0 is no effect and 100 is complete control
[21] = 31 g ai/ha, Preemergence, scale 0 to 100
[22] = 62 g ai/ha, preemergence, scale 0 (no effect) to 100 (complete control)
[23] = preemergence, 125 g ai/ha, scale 0 (no effect) to 100 (complete control)

Cc1cc[n+]([O-])c(S(=O)(=O)Cc2c(C(F)(F)F)nn(C)c2OC(F)F)c1 [Compound 2]
Barnyardgrass plant response rating [1, 17]: 70
Barnyardgrass plant response rating [1, 18]: 80
Barnyardgrass plant response rating [1, 19]: 90
Plant response rating, Barnyardgrass [1, 20]: 100
Crabgrass, Large plant response rating [2, 17]: 70
Crabgrass, Large plant response rating [2, 18]: 90
Crabgrass, Large plant response rating [2, 19]: 90
Plant response rating, Crabgrass, Large [2, 20]: 100
Wheat plant response rating [3, 17]: 60
Wheat plant response rating [3, 18]: 70
Wheat plant response rating [3, 19]: 40
Plant response rating, Wheat [3, 20]: 70
Corn plant response rating [4, 17]: 60
Corn plant response rating [4, 18]: 60
Corn plant response rating [4, 19]: 0
Plant response rating, Corn [4, 20]: 40
Ryegrass, Italian plant response rating ([5]; 62 g ai/ha): 50
Plant response rating (0 to 100), Ryegrass, Italian ([5]; Postemergence, 31 g ai/ha): 0
Plant response rating (0 to 100), Ryegrass, Italian ([5]; Postemergence, 62 g ai/ha): 0
Plant response rating, Ryegrass, Italian ([5]; Postemergence, 125 g ai/ha): 0
Plant response rating, Ryegrass, Italian ([5]; Postemergence, 250 g ai/ha): 0
Plant response rating (0 to 100), Ryegrass, Italian ([5]; Preemergence, 250 g ai/ha): 100
Ryegrass, Italian plant response rating ([5]; 125 g ai/ha): 50
Surinam Grass plant response rating ([6]; 62 g ai/ha): 100
Plant response rating (0 to 100), Surinam Grass ([6]; Postemergence, 31 g ai/ha): 0
Plant response rating (0 to 100), Surinam Grass ([6]; Postemergence, 62 g ai/ha): 0
Plant response rating, Surinam Grass ([6]; Postemergence, 125 g ai/ha): 0
Plant response rating, Surinam Grass ([6]; Postemergence, 250 g ai/ha): 0
Plant response rating (0 to 100), Surinam Grass ([6]; Preemergence, 250 g ai/ha): 100
Surinam Grass plant response rating ([6]; 125 g ai/ha): 100
Corn plant response rating [7, 21]: 0
Corn plant response rating [7, 22]: 5
Plant response rating (0 to 100), Corn ([7]; Postemergence, 31 g ai/ha): 0
Plant response rating, Corn ([7]; Postemergence, 62 g ai/ha): 0
Plant response rating, Corn ([7]; Postemergence, 125 g ai/ha): 0
Plant response rating, Corn ([7]; Postemergence, 250 g ai/ha): 0
Plant response rating (0 to 100), Corn ([7]; Preemergence, 250 g ai/ha): 85
Corn plant response rating [7, 23]: 45
Crabgrass, Large plant response rating [8, 21]: 70
Crabgrass, Large plant response rating [8, 22]: 100
Plant response rating (0 to 100), Crabgrass, Large ([8]; Postemergence, 31 g ai/ha): 0
Plant response rating, Crabgrass, Large ([8]; Postemergence, 62 g ai/ha): 0
Plant response rating, Crabgrass, Large ([8]; Postemergence, 125 g ai/ha): 0
Plant response rating, Crabgrass, Large ([8]; Postemergence, 250 g ai/ha): 40
Plant response rating (0 to 100), Crabgrass, Large ([8]; Preemergence, 250 g ai/ha): 100
Crabgrass, Large plant response rating [8, 23]: 100
Foxtail, Giant plant response rating [9, 21]: 65
Foxtail, Giant plant response rating [9, 22]: 90
Plant response rating (0 to 100), Foxtail, Giant ([9]; Postemergence, 31 g ai/ha): 0
Plant response rating, Foxtail, Giant ([9]; Postemergence, 62 g ai/ha): 0
Plant response rating, Foxtail, Giant ([9]; Postemergence, 125 g ai/ha): 0
Plant response rating, Foxtail, Giant ([9]; Postemergence, 250 g ai/ha): 50
Plant response rating (0 to 100), Foxtail, Giant ([9]; Preemergence, 250 g ai/ha): 100
Foxtail, Giant plant response rating [9, 23]: 100
Goosegrass plant response rating [10, 21]: 80
Goosegrass plant response rating [10, 22]: 100
Plant response rating (0 to 100), Goosegrass ([10]; Postemergence, 31 g ai/ha): 0
Plant response rating, Goosegrass ([10]; Postemergence, 62 g ai/ha): 0
Plant response rating, Goosegrass ([10]; Postemergence, 125 g ai/ha): 0
Plant response rating, Goosegrass ([10]; Postemergence, 250 g ai/ha): 0
Plant response rating (0 to 100), Goosegrass ([10]; Preemergence, 250 g ai/ha): 100
Goosegrass plant response rating [10, 23]: 100
Johnsongrass plant response rating [11, 21]: 30
Johnsongrass plant response rating [11, 22]: 95
Plant response rating (0 to 100), Johnsongrass ([11]; Postemergence, 31 g ai/ha): 0
Plant response rating, Johnsongrass ([11]; Postemergence, 62 g ai/ha): 0
Plant response rating, Johnsongrass ([11]; Postemergence, 125 g ai/ha): 0
Plant response rating, Johnsongrass ([11]; Postemergence, 250 g ai/ha): 0
Plant response rating (0 to 100), Johnsongrass ([11]; Preemergence, 250 g ai/ha): 100
Johnsongrass plant response rating [11, 23]: 100
Morningglory plant response rating [12, 21]: 85
Morningglory plant response rating [12, 22]: 100
Plant response rating, Morningglory ([12]; 62 g ai/ha): 5
Plant response rating, Morningglory ([12]; 125 g ai/ha): 5
Plant response rating, Morningglory ([12]; 250 g ai/ha): 30
Plant response rating (0 to 100), Morningglory ([12]; Preemergence, 250 g ai/ha): 100
Morningglory plant response rating [12, 23]: 100
Nightshade plant response rating [13, 21]: 98
Nightshade plant response rating [13, 22]: 100
Plant response rating (0 to 100), Nightshade ([13]; Preemergence, 250 g ai/ha): 100
Nightshade plant response rating [13, 23]: 100
Pigweed plant response rating [14, 21]: 100
Pigweed plant response rating [14, 22]: 100
Plant response rating (0 to 100), Pigweed ([14]; Postemergence, 31 g ai/ha): 0
Plant response rating (0 to 100), Pigweed ([14]; Postemergence, 62 g ai/ha): 0
Plant response rating, Pigweed ([14]; Postemergence, 125 g ai/ha): 0
Plant response rating, Pigweed ([14]; Postemergence, 250 g ai/ha): 0
Plant response rating (0 to 100), Pigweed ([14]; Preemergence, 250 g ai/ha): 100
Pigweed plant response rating [14, 23]: 100
Sunflower plant response rating ([15]; 62 g ai/ha): 5
Plant response rating (0 to 100), Sunflower ([15]; Preemergence, 250 g ai/ha): 100
Sunflower plant response rating ([15]; 125 g ai/ha): 80
Plant response rating (0 to 100), Velvetleaf ([16]; 31 g ai/ha): 0
Plant response rating (0 to 100), Velvetleaf ([16]; 62 g ai/ha): 0
Plant response rating, Velvetleaf ([16]; 125 g ai/ha): 0
Plant response rating, Velvetleaf ([16]; 250 g ai/ha): 5
